# Source: paper PMC7470027, “Synthesis and structure-activity relationships of novel 5-(hydroxamic acid)methyl oxazolidinone derivatives as 5-lipoxygenase inhibitors” (Journal of Enzyme Inhibition and Medicinal Chemistry, 2020)
# Experiments:
# [1] = tested on: 5-LO product LTC4 from isolated human monocytes; experiment: Inhibition of 5-LO product LTC4 from isolated human monocytes (A23187); format: cell-based; settings: Monocyte, calcium ionophore A23187, 95% confidence interval in brackets, read-out: Human monocyte LTC4 IC50 (CI)
# Experimental: Mononuclear cells were first isolated from heparinised blood using the Ficoll-Hypaque gradient centrifugation method. Monocytes were subsequently purified by adherence to plastic according to standard protocols. The purity of the adherent monocytes (CD14+) was routinely confirmed by flow cytometry to be >95% and viability (by trypan blue exclusion method) was routinely >97%. Adherent monocytes were then washed and incubated in 190 µl culture medium RPMI-1640 supplemented with 100 U/ml penicillin, 100 µg/ml streptomycin and 10% heat-inactivated foetal bovine serum (Sigma-Aldrich, St Louis, MO). […] After further incubation for 15 min, the culture supernatants were recovered by centrifugation and stored at −40 °C pending LTC4 determination.
# Appropriately diluted supernatants were assayed for the released products – LTs (LTB4 and LTC4), by the enzyme immunoassay (EIA) method using assay kits supplied by R&D Systems (Minneapolis, MN) and following the manufacturer’s instructions.
# (§1) All data were analysed using GraphPad Prism software (GraphPad Software, San Diego, CA). […] Differences between experimental groups were first analysed by one-way ANOVA, followed by Bonferroni’s post-hoc test. A p-value of less than 0.05 was taken as statistically significant.
# [2] = tested on: zymosan-induced peritoneal inflammation; experiment: Zymosan-induced peritoneal inflammation model in mice; format: in vivo, mouse; settings: for Inhibition of total LTC4 content of the peritoneal lavage fluid: p < 0.001 vs zymosan plus vehicle
# Experimental: Female Balb/c mice 6 to 8-weeks-old obtained from the Animal Resources Centre of the Health Sciences Centre, Kuwait University, were used. They were maintained under temperature-controlled conditions with an artificial 12-h light/dark cycle and allowed standard chow and water ad libitum. The study was carried out in compliance with the Regulations for the Use of Laboratory Animals in the Health Sciences Centre, Kuwait University, and complied with the National Institute of Health guide for the care and use of laboratory animals (NIH Publication # 8023, revised 1978). The zymosan-induced peritonitis model - a recognised LT-mediated inflammatory reaction, was used. […] After 30 min, all groups were injected intraperitoneally with 0.2 ml of activated zymosan (2 mg/ml) except the control group that received 0.2 ml PBS. After 2 h, all animals were killed, and the peritoneal exudate collected by washing the cavity with 3 ml of heparinised (10 IU/ml) PBS. Cells in the exudate were recovered by centrifugation and counted in a haemocytometer while the supernatant volume was recorded and then stored frozen at −78 °C until used for the determination of LTC4 by ELISA as detailed above.
# [3] = tested on: leukotriene (LT) biosynthesis / 5-LO; experiment: Overall activity across the four in vitro test systems (three cell-based LT release assays and 5-LO)
# Experimental: Furthermore, in order to confirm that the in vitro inhibitory activity of the compounds was not due to the direct toxic effects on the cells, the effect of the compounds on the viability of isolated human monocytes after 3 h and 24 h treatment was performed. Finally, in vivo anti-inflammatory studies were performed using the zymosan-induced peritoneal inflammation model in mice, which is a well-known model in which the LTs are known to play a critical role[26].
# The inhibitory activity data for the tested compounds obtained in three cell-based in vitro test systems - LTB4 release from human whole blood, LTC4 release from isolated human monocytes and LTC4 release from IgE/antigen-activated mouse mast cells, are shown in Table 1. Similar data on the direct inhibitory effect on the enzymatic activity of recombinant human 5-LO, together with the calculated Clog P (log of partition coefficient) values, which is an indication of the lipophilicity of each compound, are also shown in Table 1.
# recombinant human 5-LO = biological target: T1, recombinant human 5-LO (Homo sapiens, UniProt P09917); experiment: Direct inhibition of 5-LO activity in a cell-free assay (H2DCF-DA fluorescence); format: biochemical; settings: cell-free, recombinant human 5-LO; 95% confidence interval in brackets
# T1 sequence (P09917 1-674): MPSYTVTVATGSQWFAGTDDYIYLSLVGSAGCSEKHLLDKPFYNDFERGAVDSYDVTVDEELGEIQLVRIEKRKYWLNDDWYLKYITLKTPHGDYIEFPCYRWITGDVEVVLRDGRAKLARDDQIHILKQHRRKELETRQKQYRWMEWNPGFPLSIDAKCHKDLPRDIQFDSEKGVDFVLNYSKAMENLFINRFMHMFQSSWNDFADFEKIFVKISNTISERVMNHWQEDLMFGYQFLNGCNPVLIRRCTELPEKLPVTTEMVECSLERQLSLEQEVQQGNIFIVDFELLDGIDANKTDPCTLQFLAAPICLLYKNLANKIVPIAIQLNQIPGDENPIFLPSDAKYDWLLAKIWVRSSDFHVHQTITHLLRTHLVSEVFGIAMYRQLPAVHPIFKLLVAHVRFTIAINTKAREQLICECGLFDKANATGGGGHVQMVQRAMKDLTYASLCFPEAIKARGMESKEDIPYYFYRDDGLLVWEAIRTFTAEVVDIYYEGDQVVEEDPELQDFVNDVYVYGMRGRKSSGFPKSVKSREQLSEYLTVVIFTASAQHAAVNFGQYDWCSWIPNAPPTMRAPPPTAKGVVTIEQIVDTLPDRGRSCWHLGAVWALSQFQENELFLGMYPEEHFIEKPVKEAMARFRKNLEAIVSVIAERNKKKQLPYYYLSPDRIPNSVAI
# Experimental: The assay was based on the oxidation of the dye 2′,7′-dichlorodihydrofluorescein diacetate (H2DCF-DA) to a highly fluorescent product by 5-LO enzymatic products. H2DCF-DA (60 µM) was first pre-cleaved by incubating with 450 mU/ml recombinant human 5-LO enzyme in Tris buffer (containing 50 mM Tris, pH = 7.5, 2 mM EDTA, 2 mM CaCl2, 1 mM DTT and 0.6 U/ml glutathione peroxidase) for 10 min at room temperature. […] After 10 min incubation at room temperature, the reaction was started with the addition of 50 µl of substrate solution (Tris buffer containing 20 µM ATP and 20 µM arachidonic acid (AA). After a further 20 min, the reaction was terminated with 100 µl acetonitrile. Fluorescence was read at 500 nm excitation and 520 nm emission, with Novostar^R microplate reader (BMG Labtech, Offenburg, Germany). Appropriate controls, including 100 µM nordihydroguaiaretic acid (NDGA), were included to isolate only the 5-LO-attributable, NDGA-inhibitable RFU values.
# as §1
# [4] = 10 mg/kg subcutaneously 30 min before zymosan
smiles,measurement,setting,value
"CCCCCCC(=O)N(O)C[C@H]1CN(c2ccc(N3CCOCC3)c(F)c2)C(=O)O1 [PH-249, (R)-N-((3-(3-fluoro-4-morpholinophenyl)-2-oxooxazolidin-5-yl)methyl)-N-hydroxyheptanamide]",IC50,[1],900 nM
same,Inhibition of cellular infiltration (total cellular content of peritoneal lavage),[2]; [4],only the inhibition by the higher dose reached statistical significance
same,Inhibition of total LTC4 content of the peritoneal lavage fluid,[2]; [4],highly significant inhibition
same,Inhibition of total LTC4 content of the peritoneal lavage fluid,[2]; 30 mg/kg subcutaneously 30 min before zymosan,highly significant inhibition
same,Inhibition of cellular infiltration (total cellular content of peritoneal lavage),"[2]; 30 mg/kg subcutaneously 30 min before zymosan, p < 0.01 vs zymosan plus vehicle",reached statistical significance
same,Activity across the in vitro test systems (in words),[3]; cell-based systems and cell-free 5-LO,active in all four test systems
same,IC50,"[3]; summary statements, in vitro test systems, read-out: IC50 (test system not specified / across test systems)",< 1000 nM
same,IC50,recombinant human 5-LO,1900 nM
